Test results taken from US20070078263A1, “BIARYL SUBSTITUTED HETEROCYCLE INHIBITORS OF LTA4H FOR TREATING INFLAMMATION” (deCODE Chemistry, Inc., priority 2005, published 2007).
Counter-ions that a name gives are not always drawn. Like-named read-outs stand apart in the source and are kept apart here.

Columns and labels:
human whole blood = assay: Ex vivo assay testing inhibitory activity in human whole blood after stimulation with calcium ionophore (LTB4 ELISA); type: cell-based; conditions: Ionomycin 20 μM, read-out: hWBIC50;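 further: heparinized human blood preincubated 15 min at 37 °C with compound, then ionomycin-stimulated for 30 min, LTB4 in plasma supernatant quantified by ELISA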
Description: (2) Ex vivo assay testing inhibitory activity in human whole blood after stimulation with calcium ionophor.
Human blood was collected in heparin-containing Vacutainer tubes. […] Then 4 μl of a series of compound dilutions (in DMSO) were added, followed by a 15 min incubation at 37° C. with gentle shaking. After that, blood samples were stimulated by adding Ionomycin (Calbiochem) to a final concentration of 20 μM. After another incubation at 37° C. for 30 min, samples were centrifuged for 5 min at 1800 g and 4° C. Supernatants were taken and LTB4 concentrations were determined using a commercially available enzyme-linked immunosobentassay (R&D Systems, Minneapolis, Minn.) according to the manufacturer's instructions.

human LTA4 hydrolase = target: T1, human LTA4 hydrolase (Homo sapiens, UniProt P09960); assay: In vitro assay testing inhibitory activity against purified recombinant human LTA4 hydrolase (LTB4 formed, LC-MS/MS); type: biochemical;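 further: 200 nM enzyme preincubated 10 min at room temperature with serial inhibitor dilutions in pH 8.0 Tris buffer with BSA and 10% DMSO, then 2 µM LTA4 added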
T1 construct: A human LTA4 hydrolase full-length cDNA clone (NM 000895) was purchased; His tag (6xHis of vector pDEST17); made in house; host or cells: Escherichia coli BL21-AI
T1 sequence (P09960 1-611): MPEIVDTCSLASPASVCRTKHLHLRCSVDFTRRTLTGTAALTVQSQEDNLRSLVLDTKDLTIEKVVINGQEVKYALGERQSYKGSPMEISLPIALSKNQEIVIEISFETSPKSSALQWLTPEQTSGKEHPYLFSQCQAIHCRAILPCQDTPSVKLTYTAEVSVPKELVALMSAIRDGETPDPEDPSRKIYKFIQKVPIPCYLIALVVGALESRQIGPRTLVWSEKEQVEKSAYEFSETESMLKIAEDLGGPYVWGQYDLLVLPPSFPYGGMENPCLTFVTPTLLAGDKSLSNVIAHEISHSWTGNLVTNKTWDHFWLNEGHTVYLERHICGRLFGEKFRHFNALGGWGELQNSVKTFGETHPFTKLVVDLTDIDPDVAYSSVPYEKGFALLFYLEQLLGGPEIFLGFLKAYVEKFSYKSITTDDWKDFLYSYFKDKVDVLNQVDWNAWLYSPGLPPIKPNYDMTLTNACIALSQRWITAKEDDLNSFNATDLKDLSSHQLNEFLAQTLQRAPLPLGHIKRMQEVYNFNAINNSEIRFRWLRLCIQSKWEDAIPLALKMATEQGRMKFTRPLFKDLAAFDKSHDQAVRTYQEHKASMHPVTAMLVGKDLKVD
Excerpt: (1) In vitro assay testing inhibitory activity against purified recombinant human LTA4 hydroase. […] The gene was amplified by polymerase chain reaction and transferred via pDONR201 into the bacterial expression vector pDEST17 by recombination (both plasmids from Invitrogen, Carlsbad, Calif.). The resulting construct was transformed into Escherichia coli BL21-AI (Invitrogen), and expression was induced by chemical induction with arabinose. The recombinant enzyme was purified by chromatography on an FPLC system (Amersham Biosciences, Uppsala, Sweden) using immobilized metal affinity chromatography (Ni-NTA Superflow, Qiagen, Hilden, Germany) and anion exchange chromatography (MonoQ HR 10/10, Amersham Biosciences).
The compounds of the invention were incubated in a series of dilutions with 200 nM of recombinant enzyme in assay buffer (100 mM Tris-HCl, 100 mM NaCl, 5 mg/ml fatty-acid free BSA, 10% DMSO, pH 8.0) for 10 min at room temperature to allow binding between LTA4 hydrolase and the inhibitors. LTA4 was prepared by alkaline hydrolysis of LTA4 methyl ester (Biomol, Plymouth Meeting, Pa., or Cayman Chemicals, Ann Arbor, Mich.). A solution of 10 μg of the ester was dried under a nitrogen stream and redissolved in 60 μl of a solution of 80% acetone and 20% 0.25 M NaOH. After incubation for 40 min at room temperature the resulting approximately 500 μM tock of LTA4 was kept at −80° C. for no more than a few days prior to use.
Immediately before the assay, LTA4 was diluted to a concentration of 10 μM in assay buffer (without DMSO) and added to the reaction mixture to a final concentration of 2 μM to initiate the enzyme reaction. […] The samples were then kept at 4° C. overnight to complete protein precipitation and centrifuged for 15 min at 1800 g.

[1] = recombinant human LTA4 hydrolase 200 nM, LTA4 2 μM, read-out: AvgIC50

Compound | IC50 (human whole blood) | IC50 (human LTA4 hydrolase; [1]) | IC50 (human LTA4 hydrolase)
c1ccc(Cc2ccc(OCC3CCCCN3)cc2)cc1 (racemic) [Example 73, (+/−)-2-[(4-Benzylphenoxy)methyl]-piperidine hydrochloride] | < 5 µM | < 5 µM | 
c1ccc(Oc2ccc(OCC3CCCCN3)cc2)cc1 (racemic) [Example 74, (+/−)-2-[(4-phenoxyphenoxy)methyl]-piperidine hydrochloride] | < 5 µM | < 5 µM | 
O=C(O)CCCN1CCC[C@H]1COc1ccc(Cc2ccccc2)cc1 [Example 3, 4-[(S)-2-(4-benzyl-phenoxymethyl)-pyrrolidin-1-yl]-butyric acid] | < 5 µM | < 5 µM | 
c1ccc(Cc2ccc(OC[C@H]3CCCN3Cc3ccccn3)cc2)cc1 [Example 4, 2-[(R)-2-(4-benzyl-phenoxymethyl)-pyrrolidin-1-ylmethyl]-pyridine] | < 5 µM | < 5 µM | 
c1ccc(Cc2ccc(OC[C@H]3CCCN3Cc3cccnc3)cc2)cc1 [Example 5, 3-[(R)-2-(4-benzyl-phenoxymethyl)-pyrrolidin-1-ylmethyl]-pyridine] | < 5 µM | < 5 µM | 
COC(=O)CCCN1CCC[C@@H]1COc1ccc(Cc2ccccc2)cc1 [Example 8, 4-[(R)-2-(4-benzyl-phenoxymethyl)-pyrrolidin-1-yl]-butyric acid methyl ester] | < 5 µM | < 5 µM | 
O=C(O)CCN1CCC[C@@H]1COc1ccc(Cc2ccccc2)cc1 [Example 9, 3-[(R)-2-(4-benzyl-phenoxymethyl)-pyrrolidin-1-yl]-propionic acid hydrochloride] | < 5 µM | < 5 µM | 
O=C(O)CCCN1CCC[C@@H]1COc1ccc(Cc2ccccc2)cc1 [Example 10, 4-[(R)-2-(4-benzyl-phenoxymethyl)-pyrrolidin-1-yl]-butylic acid hydrochloride] | < 5 µM | < 5 µM | 
Clc1ccc(Oc2ccc(OC[C@H]3CCCN3)cc2)cc1 [Example 13, (R)-2-[4-(4-Chloro-phenoxy)-phenoxymethyl]-pyrrolidine hydrochloride] | < 5 µM | < 5 µM | 
FC(F)(F)c1ccc(Oc2ccc(OC[C@H]3CCCN3)cc2)cc1 [Example 16, (R)-2-[4-(4-Trifluoromethyl-phenoxy)-phenoxymethyl]-pyrrolidine hydrochloride] | < 5 µM | < 5 µM | 
O=C(O)CCCN1CCC[C@@H]1COc1ccc(Oc2ccc(Cl)cc2)cc1 [Example 20, 4-{(R)-2-[4-(4-Chloro-phenoxy)-phenoxymethyl]-pyrrolidin-1-yl}-butyric acid hydrochloride] | < 5 µM |  | 
O=C(O)CCCN1CCC[C@H]1COc1ccc(Cc2ccc(Cl)cc2)cc1 [Example 21, 4-{(S)-2-[4-(4-Chloro-benzyl)-phenoxymethyl]-pyrrolidin-1-yl}-butyric acid hydrochloride] | < 5 µM | < 5 µM | 
O=C(O)CCCN1CCC[C@H]1COc1ccc(Oc2ccc(Cl)cc2)cc1 [Example 22, 4-{(S)-2-[4-(4-Chloro-phenoxy)-phenoxymethyl]-pyrrolidin-1-yl}-butyric acid hydrochloride] | < 5 µM |  | 
NC(=O)CCCN1CCC[C@H]1COc1ccc(Oc2ccc(Cl)cc2)cc1 [Example 23, 4-{(S)-2-[4-(4-Chloro-phenoxy)-phenoxymethyl]-pyrrolidin-1-yl}-butyramide] | < 5 µM | < 5 µM | 
O=C(CCCN1CCC[C@H]1COc1ccc(Oc2ccc(Cl)cc2)cc1)NO [Example 27, hydrochloride] | < 5 µM |  | 
O=C(O)CCCN1CCC[C@@H]1COc1ccc(Oc2ccc(C(F)(F)F)cc2)cc1 [Example 30, (R)-2-[4-(4-trifluoromethyl-phenoxy)-phenoxymethyl]-pyrrolidine-1-yl}butyric acid sodium salt] | < 5 µM | < 5 µM | 
CS(=O)(=O)NCCCN1CCC[C@H]1COc1ccc(Oc2ccc(Cl)cc2)cc1 [Example 39, N-(3-{(S)-2-[4-(4-Chloro-phenoxy)-phenoxymethyl]-pyrrolidin-1-yl}-propyl)-methanesulfonamide HCl] | < 5 µM | < 5 µM | 
NC(=O)NCCCN1CCC[C@H]1COc1ccc(Oc2ccc(Cl)cc2)cc1 [Example 40, (3-{(S)-2-[4-(4-Chloro-phenoxy)-phenoxymethyl]-pyrrolidin-1-yl}-propyl)-urea] | < 5 µM |  | 
c1ccc(Oc2ccc(NC[C@H]3CCCN3)cc2)cc1 [Example 42, (4-Phenoxy-phenyl)-(R)-1-pyrrolidin-2-ylmethyl-amine] | < 5 µM | < 5 µM | 
Fc1ccc(Oc2ccc(OC[C@H]3CCCN3)cc2)cc1 [Example 49, (R)-2-[4-(4-Fluoro-phenoxy)-phenoxymethyl]-pyrrolidine] | < 5 µM | < 5 µM | 

Compound | IC50 (human whole blood) | IC50 (human LTA4 hydrolase; [1]) | IC50 (human LTA4 hydrolase)
c1ccc(Oc2ccc(OC[C@H]3CCCCN3)cc2)cc1 [Example 50, (R)-2-(4-Phenoxy-phenoxymethyl)-piperidine hydrochloride] | < 5 µM | < 5 µM | 
c1ccc(Cc2ccc(OC[C@H]3CCCCN3)cc2)cc1 [Example 51, (R)-2-(4-Benzyl-phenoxymethyl)-piperidine hydrochloride] | < 5 µM | < 5 µM | 
c1ccc(Oc2ccc(OC[C@@H]3CCCCN3)cc2)cc1 [Example 52, (S)-2-(4-Phenoxy-phenoxymethyl)-piperidine hydrochloride] | < 5 µM | < 5 µM | 
c1ccc(-c2ccc(Oc3ccc(OC[C@@H]4CCCCN4)cc3)cc2)cc1 [Example 53, (S)-2-[4-(Biphenyl-4-yloxy)-phenoxymethyl]-piperidine hydrochloride] | < 5 µM |  | < 5 µM
c1ccc(-c2ccc(Oc3ccc(OC[C@H]4CCCCN4)cc3)cc2)cc1 [Example 54, (R)-2-[4-(Biphenyl-4-yloxy)-phenoxymethyl]-piperidine hydrochloride] | < 5 µM |  | < 5 µM
FC(F)(F)c1ccc(Oc2ccc(OC[C@H]3CCCCN3)cc2)cc1 [Example 55, (R)-2-[4-(4-Trifluoromethyl-phenoxy)-phenoxymethyl]-piperidine hydrochloride] | < 5 µM | < 5 µM | 
Clc1ccc(Oc2ccc(OC[C@@H]3CCCCN3)cc2)cc1 [Example 56, (S)-2-[4-(4-Chloro-phenoxy)-phenoxymethyl]-piperidine hydrochloride] | < 5 µM | < 5 µM | 
Fc1ccc(Oc2ccc(OC[C@@H]3CCCCN3)cc2)cc1 [Example 57, (S)-2-[4-(4-Fluoro-phenoxy)-phenoxymethyl]-piperidine hydrochloride] | < 5 µM | < 5 µM | 
COC(=O)CCCN1CCCC[C@H]1COc1ccc(Oc2ccc(Cl)cc2)cc1 [Example 60, 4-{(S)-2-[4-(4-Chloro-phenoxy)-phenoxymethyl]-piperidin-1-yl}-butyric acid methyl ester] | < 5 µM | < 5 µM | 
O=C(O)CCCN1CCCC[C@H]1COc1ccc(Oc2ccc(Cl)cc2)cc1 [Example 61, 4-{(S)-2-[4-(4-Chloro-phenoxy)-phenoxymethyl]-piperidin-1-yl}-butyric acid hydrochloride] | < 5 µM |  | < 5 µM
O=C(O)CCCN1CCC[C@@H]1COc1ccc(Oc2ccc(-c3nccs3)cc2)cc1 [Example 147, 4-{(R)-2-[4-(4-Thiazol-2-yl-phenoxy)-phenoxymethyl]-pyrrolidin-1-yl}-butyric acid] | < 5 µM |  | 
O=C(O)CCCN1CCC[C@H]1COc1ccc(Cc2ccc(-c3ccccc3)s2)cc1 [Example 162, 4-{(S)-2-[4-(5-Phenyl-thiophen-2-ylmethyl)-phenoxymethyl]-pyrrolidin-1-yl}-butyric acid] |  | < 5 µM | 
c1ccc(-c2ccc(Cc3ccc(OC[C@H]4CCCN4)cc3)o2)cc1 [Example 163, (R)-2-[4-(5-Phenyl-furan-2-ylmethyl)-phenoxymethyl]-pyrrolidine] |  | < 5 µM | 
O=C(O)CCN1CCC[C@@H]1COc1ccc(Oc2ccccn2)cc1 [Example 168, 3-{2-[4-(Pyridin-2-yloxy)-phenoxymethyl]-pyrrolidin-1-yl}-propionic acid] |  | < 5 µM | 
c1ccc(Cc2ccc(-c3ccc(OC[C@H]4CCCN4)cc3)s2)cc1 [Example 170, (R)-2-[4-(5-Benzyl-thiophen-2-yl)-phenoxymethyl]-pyrrolidine] |  | < 5 µM | 
O=C(O)CCCN1CCC[C@@H]1COc1ccc(-c2ccc(Cc3ccccc3)s2)cc1 [Example 171, 4-{(R)-2-[4-(5-Benzyl-thiophen-2-yl)-phenoxymethyl]-pyrrolidin-1-yl}-butyric acid] |  | < 5 µM | 
c1ccc(Cc2ccc(-c3ccc(OC[C@@H]4CCCN4)cc3)s2)cc1 [Example 172, (S)-2-[4-(5-Benzyl-thiophen-2-yl)-phenoxymethyl]-pyrrolidine] |  | < 5 µM | 
Cc1ccc(Oc2ccc(OC[C@@H]3CCCN3)cc2)cc1 [compound 37] |  | < 5 µM | 
(S)-2-[4-(2-thiophen-benzyl)-phenoxymethyl]-pyrrolidine hydrogen chloride salt [Example 117] | < 5 µM |  | 
